This note sets out measurements from patent US11952383B1, “Aza-podophyllotoxin analogues as potential anti-cancer agents” (KING FAISAL UNIVERSITY, priority 2023, dated 2024).

Each structure is given as a SMILES string. Where two headings read alike, the source gives them in different places.

The subject of assay [1] is MCF-7 (human breast cancer). As to the kind of experiment: In vitro cytotoxic activity MTT assay, MCF-7. It counts as cell-based. As for the experimental part: (§1) The cytotoxicity activity of the compounds of the current subject matter was assessed against three cancer cell lines such as A-549 (lung cancer), MCF-7 (breast cancer) and HL-60 (leukemia) cancer cells.
(§2) Compounds 1-15 were screened for their in vitro cytotoxic behavior utilizing a 3-(4,5-dimethyl-thiazol-2-yl)-2,5-diphenyltetrazolium bromide (MTT) assay against selected cancer human cell lines consisting of MCF-7 (human breast cancer), A-549 (lung cancer) and HL-60 (leukemia) (T. Mosmann, J. Immunol. Meth., 1983, 65, 55-63). The cells were cultured at 37° C. in RMPI1640 medium supplemented with 10% fetal bovine serum, 50 IU/mL penicillin, and 50 μg/mL streptomycin in a 5% CO2 incubator. All cells were sub-cultured 3 times/week by trypsinisation. Viable cells were seeded and allowed to adhere for 12 h before a test drug was added in 96-well plates at an initial density of 1.0×10^5 cells/mL. Tumour cell lines were separately exposed to various concentrations of the tested compounds followed by incubation at a temperature of 37° C. during 24 h inside a medium of fresh RMPI 1640. Cells were subsequently incubated at 37° C. using MTT at 0.5 mg/mL during 4 h. After removal of supernatant, formazan crystals were dissolved in isopropanol and the optical density was measured at 570 nm. Etopside and Cisplatin were used as a positive control.
For orientation: Formazan colour is commonly taken as a measure of viable cells.

Another assay relates to A-549 (lung cancer). As to the kind of experiment: In vitro cytotoxic activity MTT assay, A-549. In kind it is cell-based, human. As for the experimental part:
as §1, §2

In another assay the test system is HL-60 (leukemia). The assay is described as follows: In vitro cytotoxic activity MTT assay, HL-60. It counts as cell-based, human. As for the experimental part: as §1, §2
[2] abbreviates: MCF-7 breast cancer cells, MTT, 24 h incubation, read-out: Anti-proliferative activity: IC50 (μM) MCF-7.
The mark [3] stands for this setting: A-549 lung cancer cells, MTT, 24 h incubation, read-out: Anti-proliferative activity: IC50 (μM) A-549.
[4] abbreviates: HL-60 leukemia cells, MTT, 24 h incubation, read-out: Anti-proliferative activity: IC50 (μM) HL-60.
Setting [5] is: Homo sapiens, MCF7, MCF-7 breast cancer cells, MTT, 24 h incubation, read-out: Anti-proliferative activity: IC50 (μM) MCF-7.
Where [6] appears, read: Homo sapiens, A549, A-549 lung cancer cells, MTT, 24 h incubation, read-out: Anti-proliferative activity: IC50 (μM) A-549.
Where [7] appears, read: Homo sapiens, HL-60 leukemia cells, MTT, 24 h incubation, read-out: Anti-proliferative activity: IC50 (μM) HL-60.

On to `N.N.[Cl][Pt][Cl]` [Cisplatin, reference compound], for which the IC50 in assay [1] (setting [2]) was 15.9 µM; with A-549 (lung cancer) (setting [3]) it was 9.25 µM; in the assay on HL-60 (leukemia) (setting [4]), 1.16 µM.
`COc1cc([C@@H]2c3cc4c(cc3[C@@H](O[C@@H]3O[C@@H]5CO[C@@H](C)O[C@H]5[C@H](O)[C@H]3O)[C@H]3COC(=O)[C@H]23)OCO4)cc(OC)c1O` [Etoposide, reference compound]: the IC50 in assay [1] (setting [2]) was determined as 32.8 µM; in the assay with A-549 (lung cancer) (setting [3]), 11.9 µM; with HL-60 (leukemia) (setting [4]) it was 0.31 µM.
Consider `COc1ccc(C2C3=C(COC3=O)Nc3nc4ccccc4n32)cc1` (stereo not drawn) [Example 1, 11-(4-methoxyphenyl)-4,11-dihydro-1H,3H-benzo[4,5]imidazo[1,2-a]furo[3,4-d]pyrimidin-1-one], for which the IC50 stood at 0.126 µM in assay [1] (setting [5]), 0.092 µM in the assay with A-549 (lung cancer) (setting [6]) and 0.082 µM in the assay on HL-60 (leukemia) (setting [7]).
Consider `COc1ccc(C2C3=C(COC3=O)Nc3nc4ccccc4n32)cc1OC` (stereo not drawn) [Example 2, 11-(3,4-dimethoxyphenyl)-4,11-dihydro-1H,3H-benzo[4,5]imidazo[1,2-a]furo[3,4-d]pyrimidin-1-one], for which the IC50 was 0.104 µM in assay [1] (setting [5]), 0.12 µM in the assay with A-549 (lung cancer) (setting [6]) and 0.096 µM in the assay on HL-60 (leukemia) (setting [7]).
In the case of `COc1cc(C2C3=C(COC3=O)Nc3nc4ccccc4n32)cc(OC)c1OC` (stereo not drawn) [Example 3, 11-(3,4,5-trimethoxyphenyl)-4,11-dihydro-1H,3H-benzo[4,5]imidazo[1,2-a]furo[3,4-d]pyrimidin-1-one], the IC50 in assay [1] (setting [5]) was determined as 0.115 µM; in the assay with A-549 (lung cancer) (setting [6]) it was 0.081 µM; in the assay on HL-60 (leukemia) (setting [7]), 0.128 µM.
As to `O=C1OCC2=C1C(c1ccc3c(c1)OCO3)n1c(nc3ccccc31)N2` (stereo not drawn) [Example 4, 11-(benzo[d][1,3]dioxol-5-yl)-4,11-dihydro-1H,3H-benzo[4,5]imidazo[1,2-a]furo[3,4-d]pyrimidin-1-one], the IC50 in assay [1] (setting [5]) turned out to be 0.097 µM; with A-549 (lung cancer) (setting [6]) it was 0.104 µM; with HL-60 (leukemia) (setting [7]), 0.084 µM.
The like results for `O=C1OCC2=C1C(c1ccc(O)c(O)c1)n1c(nc3ccccc31)N2` (stereo not drawn) [Example 5, 11-(3,4-dihydroxyphenyl)-4,11-dihydro-1H,3H-benzo[4,5]imidazo[1,2-a]furo[3,4-d]pyrimidin-1-one] were, in that order, 0.154 µM, 0.151 µM and 0.178 µM.
For `COc1cc(C2C3=C(COC3=O)Nc3nc4ccccc4n32)ccc1O` (stereo not drawn) [Example 6, 11-(4-hydroxy-3-methoxyphenyl)-4,11-dihydro-1H,3H-benzo[4,5]imidazo[1,2-a]furo[3,4-d]pyrimidin-1-one], the IC50 in assay [1] (setting [5]) is 0.105 µM; in the assay on A-549 (lung cancer) (setting [6]), 0.095 µM; in the assay on HL-60 (leukemia) (setting [7]), 0.133 µM.
`Cc1ccc(C2C3=C(COC3=O)Nc3nc4ccccc4n32)cc1` (stereo not drawn) [Example 7, 11-(p-tolyl)-4,11-dihydro-1H,3H-benzo[4,5]imidazo[1,2-a]furo[3,4-d]pyrimidin-1-one]: the IC50 was determined as 0.069 µM in assay [1] (setting [5]), 0.067 µM in the assay on A-549 (lung cancer) (setting [6]) and 0.072 µM in the assay on HL-60 (leukemia) (setting [7]).
The like results for `CN(C)c1ccc(C2C3=C(COC3=O)Nc3nc4ccccc4n32)cc1` (stereo not drawn) [Example 8, 11-(4-(dimethylamino)phenyl)-4,11-dihydro-1H,3H-benzo[4,5]imidazo[1,2-a]furo[3,4-d]pyrimidin-1-one] were, in that order, 0.087 µM, 0.092 µM and 0.129 µM.
For `Nc1ccc(C2C3=C(COC3=O)Nc3nc4ccccc4n32)cc1` (stereo not drawn) [Example 9, 11-(4-aminophenyl)-4,11-dihydro-1H,3H-benzo[4,5]imidazo[1,2-a]furo[3,4-d]pyrimidin-1-one], in that order: 0.162 µM, 0.123 µM and 0.143 µM.
Turning to `CC(=O)Nc1ccc(C2C3=C(COC3=O)Nc3nc4ccccc4n32)cc1` (stereo not drawn) [Example 10, N-(4-(1-oxo-4,11-dihydro-1H,3H-benzo[4,5]imidazo[1,2-a]furo[3,4-d]pyrimidin-11-yl)phenyl)acetamide], the figures for the IC50 (in assay [1] (setting [5]); with A-549 (lung cancer) (setting [6]); with HL-60 (leukemia) (setting [7])) were 0.374 µM, 0.211 µM and 0.281 µM, respectively.
Turning to `COc1cc(C2C3=C(CNC3=O)Nc3nc4ccccc4n32)cc(OC)c1OC` (stereo not drawn) [Example 11, 11-(3,4,5-trimethoxyphenyl)-2,3,4,11-tetrahydro-1H-benzo[4,5]imidazo[1,2-a]pyrrolo[3,4-d]pyrimidin-1-one], the IC50 is 0.125 µM in assay [1] (setting [5]), 0.086 µM with A-549 (lung cancer) (setting [6]) and 0.104 µM in the assay with HL-60 (leukemia) (setting [7]).
`COc1cc(C2C3=C(CSC3=O)Nc3nc4ccccc4n32)cc(OC)c1OC` (stereo not drawn) [Example 12, 11-(3,4,5-trimethoxyphenyl)-4,11-dihydro-1H,3H-benzo[4,5]imidazo[1,2-a]thieno[3,4-d]pyrimidin-1-one]: the IC50 in assay [1] (setting [5]) amounted to 0.111 µM; in the assay with A-549 (lung cancer) (setting [6]), 0.075 µM; with HL-60 (leukemia) (setting [7]) it was 0.085 µM.
For `O=C1OCC2=C1C(c1ccc(F)cc1)n1c(nc3ccccc31)N2` (stereo not drawn) [Example 13, 11-(4-fluorophenyl)-4,11-dihydro-1H,3H-benzo[4,5]imidazo[1,2-a]furo[3,4-d]pyrimidin-1-one], the IC50 in assay [1] (setting [5]) was determined as 0.045 µM; in assay [1] (Homo sapiens, MCF7, MCF-7 cancer cells, read-out: IC50 (concentration of cytotoxic agent which inhibits proliferation of the treated cells by 50%) against MCF-7) it was 0.045 µM; with A-549 (lung cancer) (Homo sapiens, A549, A-549 cancer cells, read-out: IC50 (concentration of cytotoxic agent which inhibits proliferation of the treated cells by 50%) against A-549) it was 0.071 µM; in the assay on A-549 (lung cancer) (setting [6]), 0.071 µM; in the assay on HL-60 (leukemia) (Homo sapiens, HL-60 cancer cells, read-out: IC50 (concentration of cytotoxic agent which inhibits proliferation of the treated cells by 50%) against HL-60), 0.061 µM; with HL-60 (leukemia) (setting [7]), 0.061 µM.
`O=C1OCC2=C1C(c1ccc(Cl)cc1)n1c(nc3ccccc31)N2` (stereo not drawn) [Example 14, 11-(4-chlorophenyl)-4,11-dihydro-1H,3H-benzo[4,5]imidazo[1,2-a]furo[3,4-d]pyrimidin-1-one]: the IC50 in assay [1] (setting [5]) worked out at 0.074 µM; with A-549 (lung cancer) (setting [6]), 0.058 µM; in the assay with HL-60 (leukemia) (setting [7]) it was 0.069 µM.
As to `O=C1OCC2=C1C(c1ccc(Br)cc1)n1c(nc3ccccc31)N2` (stereo not drawn) [Example 15, 11-(4-bromophenyl)-4,11-dihydro-1H,3H-benzo[4,5]imidazo[1,2-a]furo[3,4-d]pyrimidin-1-one], the IC50 in assay [1] (setting [5]) was found to be 0.081 µM; with A-549 (lung cancer) (setting [6]), 0.105 µM; in the assay on HL-60 (leukemia) (setting [7]) it was 0.092 µM.
